# In patent publication US10201532B2, “Compounds and their use” (ALLECRA THERAPEUTICS GMBH, priority 2010, dated 2019):
# Columns and labels:
# [1] = system: KPC-2 producing K. pneumoniae (ATCC BAA-1705); assay: Synergistic broth micro-dilution MIC (checkerboard); type: cell-based, Klebsiella pneumoniae; conditions: for MIC of Cefepime in combination with BLI / MIC of Cefotaxime in combination with BLI / MIC of Ceftazidime in combination with BLI / MIC of Ceftobiprole in combination with BLI / MIC of Ertapenem in combination with BLI / MIC of Faropenem in combination with BLI / MIC of Imipenem in combination with BLI / MIC of Meropenem in combination with BLI / MIC of Aztreonam in combination with BLI: ATCC BAA-1705
# [2] = system: KPC-3 expressing E. coli (J53 R6206); assay: as above; type: cell-based, Escherichia coli
# [3] = target: T1, crude KPC-2 enzyme extract (Klebsiella pneumoniae, UniProt Q9F663); assay: β-Lactamase inhibitory assay with CENTA substrate; type: biochemical
# T1 construct: enzyme extracts from KPC-2 producing and KPC-3 expressing bacterial gram negative strains were used; endogenous in cells; host or cells: KPC-2 producing gram-negative strain
# T1 sequence (Q9F663 25-293 limits assumed): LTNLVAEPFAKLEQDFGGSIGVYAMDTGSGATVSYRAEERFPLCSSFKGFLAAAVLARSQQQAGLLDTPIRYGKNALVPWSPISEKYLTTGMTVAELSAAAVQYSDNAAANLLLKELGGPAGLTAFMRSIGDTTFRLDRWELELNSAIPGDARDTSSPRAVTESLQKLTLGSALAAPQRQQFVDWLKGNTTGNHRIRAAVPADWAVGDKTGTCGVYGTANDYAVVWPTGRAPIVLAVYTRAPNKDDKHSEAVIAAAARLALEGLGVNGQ
# Source text: (§1) The Compound-1 was subjected to β-lactamase inhibitory assay to determine IC50 and to compare that with the comparator BLI agents as described elsewhere (Bebrone et. al., Antimicrob. Agents. Chemother, 2001, 45(6): 1868-1871; Jamieson et. al, Antimicrob. Agents. Chemother, 2003, 47(5): 1652-1657). Briefly, enzyme extracts from KPC-2 producing and KPC-3 expressing bacterial gram negative strains were used to study the β-lactamase inhibitory activity and determination of IC50 using CENTA as the substrate for β-lactamase.
# [4] = target: crude KPC-3 enzyme extract (UniProt Q9F663, H272Y, species not given); assay: β-Lactamase inhibitory assay with CENTA substrate; type: biochemical; conditions: also headed KPC2
# Source text: as §1
smiles,measurement,setting,value
O=C(O)[C@H]1/C(=C/CO)O[C@@H]2CC(=O)N21 [Clavulanic acid],MIC of Cefepime in combination with BLI,[1]; BLI at 2 μg/mL,64 µg/mL
same,MIC of Cefotaxime in combination with BLI,[1]; BLI at 2 μg/mL,32 to 64 µg/mL
same,MIC of Ceftazidime in combination with BLI,[1]; BLI at 2 μg/mL,>64 µg/mL
same,MIC of Ceftobiprole in combination with BLI,[1]; BLI at 2 μg/mL,>64 µg/mL
same,MIC of Ertapenem in combination with BLI,[1]; BLI at 2 μg/mL,32 µg/mL
same,MIC of Faropenem in combination with BLI,[1]; BLI at 2 μg/mL,>64 µg/mL
same,MIC of Imipenem in combination with BLI,[1]; BLI at 2 μg/mL,8 to 16 µg/mL
same,MIC of Meropenem in combination with BLI,[1]; BLI at 2 μg/mL,16 µg/mL
same,MIC of Aztreonam in combination with BLI,[1]; BLI at 4 μg/mL,>64 µg/mL
same,MIC of Cefepime in combination with BLI,[1]; BLI at 4 μg/mL,64 µg/mL
same,MIC of Cefotaxime in combination with BLI,[1]; BLI at 4 μg/mL,32 to 64 µg/mL
same,MIC of Ceftazidime in combination with BLI,[1]; BLI at 4 μg/mL,>64 µg/mL
same,MIC of Ceftobiprole in combination with BLI,[1]; BLI at 4 μg/mL,>64 µg/mL
same,MIC of Ertapenem in combination with BLI,[1]; BLI at 4 μg/mL,64 µg/mL
same,MIC of Faropenem in combination with BLI,[1]; BLI at 4 μg/mL,>64 µg/mL
same,MIC of Imipenem in combination with BLI,[1]; BLI at 4 μg/mL,8 to 16 µg/mL
same,MIC of Meropenem in combination with BLI,[1]; BLI at 4 μg/mL,4 to 8 µg/mL
same,MIC of Cefepime in combination with BLI,[1]; BLI at 8 μg/mL,32 µg/mL
same,MIC of Cefotaxime in combination with BLI,[1]; BLI at 8 μg/mL,16 to 32 µg/mL
same,MIC of Ceftazidime in combination with BLI,[1]; BLI at 8 μg/mL,>64 µg/mL
same,MIC of Ceftobiprole in combination with BLI,[1]; BLI at 8 μg/mL,>64 µg/mL
same,MIC of Imipenem in combination with BLI,[1]; BLI at 8 μg/mL,4 to 8 µg/mL
same,MIC of Meropenem in combination with BLI,[1]; BLI at 8 μg/mL,4 µg/mL
same,MIC of Aztreonam in combination with BLI,[1]; BLI at 16 μg/mL,>64 µg/mL
same,MIC of Cefepime in combination with BLI,[1]; BLI at 16 μg/mL,32 µg/mL
same,MIC of Cefotaxime in combination with BLI,[1]; BLI at 16 μg/mL,16 µg/mL
same,MIC of Ceftazidime in combination with BLI,[1]; BLI at 16 μg/mL,64 µg/mL
same,MIC of Ceftobiprole in combination with BLI,[1]; BLI at 16 μg/mL,>64 µg/mL
same,MIC of Ertapenem in combination with BLI,[1]; BLI at 16 μg/mL,32 µg/mL
same,MIC of Faropenem in combination with BLI,[1]; BLI at 16 μg/mL,>64 µg/mL
same,MIC of Imipenem in combination with BLI,[1]; BLI at 16 μg/mL,2 µg/mL
same,MIC of Meropenem in combination with BLI,[1]; BLI at 16 μg/mL,4 µg/mL
same,MIC of Aztreonam in combination with BLI,[1]; BLI at 64 μg/mL,64 µg/mL
same,MIC of Cefepime in combination with BLI,[1]; BLI at 64 μg/mL,8 µg/mL
same,MIC of Cefotaxime in combination with BLI,[1]; BLI at 64 μg/mL,8 µg/mL
same,MIC of Ceftazidime in combination with BLI,[1]; BLI at 64 μg/mL,16 µg/mL
same,MIC of Ceftobiprole in combination with BLI,[1]; BLI at 64 μg/mL,64 µg/mL
same,MIC of Ertapenem in combination with BLI,[1]; BLI at 64 μg/mL,8 µg/mL
same,MIC of Faropenem in combination with BLI,[1]; BLI at 64 μg/mL,>64 µg/mL
same,MIC of Imipenem in combination with BLI,[1]; BLI at 64 μg/mL,<0.5 µg/mL
same,MIC of Meropenem in combination with BLI,[1]; BLI at 64 μg/mL,2 µg/mL
same,MIC,"[1]; Klebsiella pneumoniae, ATCCBAA1705, read-out: MIC of BLI alone",> 64 µg/mL
same,MIC of Cefepime in combination with BLI,[2]; BLI at 2 μg/mL,8 µg/mL
same,MIC of Cefotaxime in combination with BLI,[2]; BLI at 2 μg/mL,4 µg/mL
same,MIC of Ceftazidime in combination with BLI,[2]; BLI at 2 μg/mL,32 µg/mL
same,MIC of Ceftobiprole in combination with BLI,[2]; BLI at 2 μg/mL,8 µg/mL
same,MIC of Imipenem in combination with BLI,[2]; BLI at 2 μg/mL,1 µg/mL
same,MIC of Meropenem in combination with BLI,[2]; BLI at 2 μg/mL,1 µg/mL
same,MIC of Cefepime in combination with BLI,[2]; BLI at 4 μg/mL,8 µg/mL
same,MIC of Cefotaxime in combination with BLI,[2]; BLI at 4 μg/mL,1 µg/mL
same,MIC of Ceftazidime in combination with BLI,[2]; BLI at 4 μg/mL,32 µg/mL
same,MIC of Ceftobiprole in combination with BLI,[2]; BLI at 4 μg/mL,8 µg/mL
same,MIC of Imipenem in combination with BLI,[2]; BLI at 4 μg/mL,1 µg/mL
same,MIC of Meropenem in combination with BLI,[2]; BLI at 4 μg/mL,1 µg/mL
same,MIC of Cefepime in combination with BLI,[2]; BLI at 8 μg/mL,1 µg/mL
same,MIC of Cefotaxime in combination with BLI,[2]; BLI at 8 μg/mL,<0.25 µg/mL
same,MIC of Ceftazidime in combination with BLI,[2]; BLI at 8 μg/mL,8 µg/mL
same,MIC of Ceftobiprole in combination with BLI,[2]; BLI at 8 μg/mL,2 µg/mL
same,MIC of Imipenem in combination with BLI,[2]; BLI at 8 μg/mL,0.5 µg/mL
same,MIC of Meropenem in combination with BLI,[2]; BLI at 8 μg/mL,0.5 µg/mL
same,MIC,"[2]; Escherichia coli, read-out: MIC of BLI alone, BLI alone",> 8 µg/mL
same,IC50,[3],330 µM
same,IC50,[4],92 µM
